In patent US20260109707A1, “HETEROBIFUNCTIONAL COMPOUNDS AND METHODS OF TREATING DISEASE” (Halda Therapeutics OpCo. Inc., priority 2022, published 2026):

Tests used:
Type in all cases: cell-based
[1] = system: T-Rex 293 cell line SC cells lacking increased expression of progesterone receptor isoform B protein; assay: Cellular growth inhibition assay, T-Rex 293 SC cells without doxycycline (CellTiter-Glo, 72 hours); conditions: T-Rex 293 SC cells not exposed to doxycycline
Description: (§1) The following types of cells were prepared for this experiment: (i) a T-Rex 293 cell line having increased expression of progesterone receptor isoform B protein due to exposure to doxycycline and (ii) a T-Rex 293 cell line lacking increased expression of progesterone receptor isoform B protein. Ability of the test compounds to inhibit proliferation of the foregoing cell types was evaluated according to the procedures set forth below.
(§2) The doxycycline-inducible progesterone receptor isoform B protein expressing cell line was established using the following protocol: T-Rex 293 cells were purchased from Invitrogen (Cat #R71007) and transfected using Lipofectamine 2000 with the wild-type progesterone receptor B protein sequence cloned into the pcDNA4/TO vector. Transfected cells were selected using 400 μg/mL Zeocin (Invitrogen Cat #R25001). Following selection, single clones were raised and maintained in Dulbecco's Modified Eagle Medium (DMEM) supplemented with 10% w/w Tetracycline-free fetal bovine serum (FBS) and 250 μg/mL Zeocin. Clones were analyzed for expression of progesterone receptor isoform B protein in the presence and absence of 10 ng/mL doxycycline (Sigma Cat #D9891), and a single doxycycline-inducible clone (hereinafter “SC”) was selected for use in downstream assays.
(§3) The SC cells were seeded on poly-D-lysine coated, black clear-bottom 384-well plates at 2500/well, in 25 μL Phenol Red Free Dulbecco's Modified Eagle Medium (DMEM) supplemented with 10% w/w charcoal-dextran treated fetal bovine serum (FBS) and 1% w/w pen-strep, with or without 10 ng/mL doxycycline. Pen-Strep is a commercially available mixture of penicillin G and streptomycin, which is used in mammalian cell culture media to prevent bacterial contamination. Phenol Red Free Dulbecco's Modified Eagle Medium (DMEM) supplemented with 10% w/w charcoal-dextran treated fetal bovine serum (FBS) and 1% w/w pen-strep, with or without 10 ng/mL doxycycline is herein referred to as Treatment Medium. Following seeding of cells in the plates, the plates were spun at 300×g for 30 seconds, then equilibrated to room temperature for 30 minutes, and then deposited in a humidified tissue culture incubator maintained at 37° C. with 5% CO2.
(§4) At 24 hours after seeding of the cells, dilutions of test compound were prepared in DMSO and dissolved in Treatment Medium, to achieve a final DMSO concentration of 0.5% w/w, thereby providing the Test Compound Solution. A 25 μL aliquot of the Test Compound Solution was added to cells in the well plates. An equal volume of a solution containing DMSO and Treatment Medium was used as a negative control. Following treatment of cells with Test Compound Solution or said equal volume of a solution containing DMSO and Treatment Medium, the plates were spun at 300×g for 30 seconds, and then left in an incubator for 72 hours.
(§5) At the end of the treatment duration, cell viability was quantified with CellTiter-Glo 2.0 reagent (Promega Cat #G9243). For this purpose, plates were equilibrated to room temperature for 30 minutes, and then 25 μL of CellTiter-Glo 2.0 reagent was added to cells in the plate wells. Plates were then agitated on a shaker for two minutes at 500 rpm and subsequently incubated at room temperature for 10 minutes. Following incubation, the plates were spun at 3000×g for 30 seconds, then sealed with an optical adhesive cover, and luminescence readings were measured with an EnVision Plate Reader (Perkin Elmer).
(§6) Data was normalized using zero luminescence for baseline. A four-parameter non-linear regression curve fit was applied to dose-response data in GraphPad Prism data analysis software to determine the half-maximal growth inhibitory concentration (GI50) for each test compound.

[2] = system: T-Rex 293 cell line SC3 cells lacking increased expression of androgen receptor protein; assay: Cellular growth inhibition assay, T-Rex 293 SC3 cells without doxycycline (CellTiter-Glo, 72 hours); conditions: 72 h, T-Rex 293 cell line SC3 cells not exposed to doxycycline (lacking increased androgen receptor expression)
In short: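 Doxycycline (10 ng/mL) was either included or omitted to toggle wild-type androgen receptor expression in SC3 cells, a T-Rex 293 clone, grown in stripped-serum, phenol red-free medium. After 72 hours with compound, viable cells were quantified by CellTiter-Glo 2.0.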

[3] = Cellular growth inhibition assay, T-Rex 293 SC cells with doxycycline (CellTiter-Glo, 72 hours); conditions: T-Rex 293 SC cells with doxycycline (increased progesterone receptor isoform B)
Description: as §1, §2, §3, §4, §5, §6

| Structure (SMILES) | GI50 [1] [nM] | GI50 [2] [nM] | GI50 [3] [nM] |
| --- | --- | --- | --- |
| CCNC(=O)C[C@@H]1N=C(c2ccc(OCCOC3CCN(c4ccc(C(=O)N[C@H]5CC[C@H](Oc6ccc(C#N)c(Cl)c6)CC5)nn4)CC3)cc2)c2c(sc(C)c2C)-n2c(C)nnc21 [I-8] | < 500 | < 500 | < 500 |
| CCNC(=O)C[C@@H]1N=C(c2ccc(CC3CCN(c4ccc(C(=O)N[C@H]5CC[C@H](Oc6ccc(C#N)c(Cl)c6)CC5)nn4)CC3)cc2)c2c(sc(C)c2C)-n2c(C)nnc21 [I-20] | 500 to 1500 | < 500 | < 500 |
| CCNC(=O)C[C@@H]1N=C(c2ccc(N3CCC(OC4CCN(c5ccc(C(=O)N[C@H]6CC[C@H](Oc7ccc(C#N)c(Cl)c7)CC6)nn5)CC4)CC3)cc2)c2c(sc(C)c2C)-n2c(C)nnc21 [I-44] |  | 500 to 1500 |  |
| Cc1sc2c(c1C)C(c1ccc(Cl)cc1)=N[C@@H](CC(=O)NCCOCCOCCOC1CCN(c3ccc(C(=O)N[C@H]4CC[C@H](Oc5ccc(C#N)c(Cl)c5)CC4)nn3)CC1)c1nnc(C)n1-2 [I-2, N-[4-(3-chloro-4-cyano-phenoxy)cyclohexyl]-6-[4-[2-[2-[2-[[2-[(9S)-7-(4-chlorophenyl)-4,5,13-trimethyl-3-thia-1,8,11,12-tetrazatricyclo[8.3.0.0^2,6]trideca-2(6),4,7,10,12-pentaen-9-yl]acetyl]amino]ethoxy]ethoxy]ethoxy]-1-piperidyl]pyridazine-3-carboxamide] | > 3000 | 500 to 1500 | < 500 |
| CCNC(=O)C[C@@H]1N=C(c2ccc(OCCOCCOC3CCN(c4ccc(C(=O)N[C@H]5CC[C@H](Oc6ccc(C#N)c(Cl)c6)CC5)nn4)CC3)cc2)c2c(sc(C)c2C)-n2c(C)nnc21 [I-10] | < 500 | 500 to 1500 | < 500 |
| CCNC(=O)C[C@@H]1N=C(c2ccc(OCCCN(C)c3ccc(C(=O)N[C@H]4CC[C@H](Oc5ccc(C#N)c(Cl)c5)CC4)nn3)cc2)c2c(sc(C)c2C)-n2c(C)nnc21 [I-48] |  | 500 to 1500 |  |
| Cc1sc2c(c1C)C(c1ccc(Cl)cc1)=N[C@@H](CC(=O)NCCOC1CCN(c3ccc(C(=O)N[C@H]4CC[C@H](Oc5ccc(C#N)c(Cl)c5)CC4)nn3)CC1)c1nnc(C)n1-2 [I-1, N-[4-(3-chloro-4-cyano-phenoxy)cyclohexyl]-6-[4-[2-[[2-[(9S)-7-(4-chlorophenyl)-4,5,13-trimethyl-3-thia-1,8,11,12-tetrazatricyclo[8.3.0.0^2,6]trideca-2(6),4,7,10,12-pentaen-9-yl]acetyl]amino]ethoxy]-1-piperidyl]pyridazine-3-carboxamide] | < 500 | 500 to 1500 | < 500 |
| CCNC(=O)C[C@@H]1N=C(c2ccc(N3CC4(C3)CN(c3ccc(C(=O)N[C@H]5CC[C@H](Oc6ccc(C#N)c(Cl)c6)CC5)nn3)C4)cc2)c2c(sc(C)c2C)-n2c(C)nnc21 [I-24] | 500 to 1500 | 500 to 1500 | < 500 |
| CCNC(=O)C[C@@H]1N=C(c2ccc(CCCOC3CCN(c4ccc(C(=O)N[C@H]5CC[C@H](Oc6ccc(C#N)c(Cl)c6)CC5)nn4)CC3)cc2)c2c(sc(C)c2C)-n2c(C)nnc21 [I-17] |  | < 500 |  |
| CCNC(=O)C[C@@H]1N=C(c2ccc(OCC3CN(c4ccc(C(=O)N[C@H]5CC[C@H](Oc6ccc(C#N)c(Cl)c6)CC5)nn4)C3)cc2)c2c(sc(C)c2C)-n2c(C)nnc21 [I-29] |  | 500 to 1500 |  |
